From US5466861A, “Bridged bicyclic aromatic compounds and their use in modulating gene expression of retinoid receptors” (SRI International, priority 1992, dated 1995)

Columns and labels:
Assay type in all cases: cell-based
[1] = test system: CRBPII-RARE, activated only by RXR homodimers; experiment: Transient transfection CAT reporter assay, CRBPII-RARE; conditions: CV-1 cells; retinoids 7 and 20 at 5×10^-7 M
Experimental: (§1) To carry out the analysis, four different reporter constructs were prepared carrying the aforementioned gene, followed by cotransfection with RARα, RARβ, or RXRα, or with RXRα and RARα together. […] CV- 1 cells or HEP G2 cells were grown in DME medium supplemented with 10% fetal calf serum. Cells were plated at 1.0×10^5 per well in a 24-well plate 16-24 hours before transfection. In general, 100 ng of reporter plasmid, 150 ng of β-galactosidase expression vector (pCH110, Pharmacia), and variable amounts of receptor expression vector were mixed with carrier DNA (pBluescript) to 1,000 ng of total DNA per well. […] The retinoids 7 and 20 were analyzed at a concentration of 5×10^-7 M.

[2] = test system: CRBPI gene RARE, bound and activated by RAR/RXR heterodimers; experiment: Transient transfection CAT reporter assay, CRBPI-RARE; conditions: CV-1 cells; retinoids 7 and 20 at 5×10^-7 M
Experimental: as §1

[3] = test system: RARβ2 gene promoter RARE (βRARE); experiment: Transient transfection CAT reporter assay, βRARE; conditions: CV-1 cells; 5×10^-7 M
Experimental: (§2) To carry out the analysis, four different reporter constructs were prepared carrying the aforementioned gene, followed by cotransfection with RARα, RARβ, or RXRα, or with RXRα and RARα together. […] CV- 1 cells or HEP G2 cells were grown in DME medium supplemented with 10% fetal calf serum. Cells were plated at 1.0×10^5 per well in a 24-well plate 16-24 hours before transfection. In general, 100 ng of reporter plasmid, 150 ng of β-galactosidase expression vector (pCH110, Pharmacia), and variable amounts of receptor expression vector were mixed with carrier DNA (pBluescript) to 1,000 ng of total DNA per well. Chloramphenicol acetyl transferase (CAT) activity was normalized for transfection efficiency by the corresponding β-galactosidase activity as described by M. Pfahl et al., /Methods in Enzymology 153:256 (1990).

RXR = experiment: Transient transfection reporter assay in other cell lines incl. Hep G2; conditions: various other cell lines, including Hep G2 cells (particular high response)
Experimental: as §2

RXR (RXRα) = biological target: T1, RXR (RXRα) (Homo sapiens, UniProt P19793); experiment: TREpal-tk-reporter gene transient transfection assay with RXR expression vector; conditions: for activity on TREpal-tk-reporter with RXR at 10^-7 M / activity on TREpal-tk-reporter with RXR at 10^-8 M / activity with RXR on TREpal-tk-reporter, preliminary evaluation: CV-1 cells; for activity with RXR on TREpal-tk-reporter, preliminary evaluation: RXR expression vector cotransfected; for activation of RXRα (overall conclusion): from TREpal and CRBPII reporter results
T1 construct: homodimer readout
T1 sequence (P19793 1-462): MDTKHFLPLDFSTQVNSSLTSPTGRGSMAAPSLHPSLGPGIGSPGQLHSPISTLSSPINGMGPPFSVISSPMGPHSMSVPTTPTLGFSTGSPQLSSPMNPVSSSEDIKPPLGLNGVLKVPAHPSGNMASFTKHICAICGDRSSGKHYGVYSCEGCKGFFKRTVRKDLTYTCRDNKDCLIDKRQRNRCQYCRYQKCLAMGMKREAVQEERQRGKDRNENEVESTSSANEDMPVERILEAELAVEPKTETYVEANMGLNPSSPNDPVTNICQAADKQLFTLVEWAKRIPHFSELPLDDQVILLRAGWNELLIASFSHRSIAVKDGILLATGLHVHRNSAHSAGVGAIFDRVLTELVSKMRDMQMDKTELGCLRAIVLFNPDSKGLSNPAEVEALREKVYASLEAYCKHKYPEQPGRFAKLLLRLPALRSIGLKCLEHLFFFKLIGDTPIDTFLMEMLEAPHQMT
From the text: The TREpal-tk-reporter gene was use in the transient transfection assay of the preceding example to evaluate compounds 7 and 20 for induction of RXR activity specifically. The TREpal represents a response element that is activated by both RAR/RXR heterodimers and RXR homodimers (X-K. Zhang et al., Nature 358:587 (1992)).

Row | activity with RXR on TREpal-tk-reporter, preliminary evaluation (RXR (RXRα)) | activation of RXRα (overall conclusion) (RXR (RXRα)) | Compound | activation of CRBPII-RARE reporter (CAT activity) [1] | activation of CRBPI-RARE reporter (CAT activity) [2] | activation of βRARE reporter (CAT activity) [3] | RXR-specific activation in other cell lines (RXR) | activity on TREpal-tk-reporter with RXR at 10^-7 M (RXR (RXRα)) | activity on TREpal-tk-reporter with RXR at 10^-8 M (RXR (RXRα))
1 | indicated activity with RXR | effective activators | CC(C)=C(c1ccc(C(=O)O)cc1)c1ccc2c(c1)C(C)(C)CCC2(C)C [Compound 20, 4-[1-(5,6,7,8-Tetrahydro-5,5,8,8-tetramethyl-2-naphthalenyl)-2-methyl-1-propenyl]benzoic acid] | strong activators | no response | slightly activated | significant and RXR-specific activation | activities similar to 9-cis-retinoic acid | neither of the active compounds revealed activity
2 | indicated activity with RXR | effective activators | CC1(C)CCC(C)(C)c2cc(C3(c4ccc(C(=O)O)cc4)SCCS3)ccc21 [Compound 7, [2-(5,6,7,8-Tetrahydro-5,5,8,8-tetramethyl-2-naphthalenyl)-2-(4-carboxyphenyl)]-1,3-dithiolane] | strong activators | no response | slightly activated |  | activities similar to 9-cis-retinoic acid | neither of the active compounds revealed activity
